Test system: HIV-1 from patient plasma samples
Assay: PHENOSENSE HIV phenotypic susceptibility assay, fold change in IC50 of patient virus versus NL4-3 reference virus
Format: cell-based
Conditions: Patient IC50/reference (NL4-3) IC50; for Fold change (FC) in IC50, 10th percentile: 10th percentile of distribution over 1515 patient samples, hypersusceptibility cut-off; for Fold change (FC) in IC50, 90th percentile: 90th percentile of distribution over 1515 patient samples; for Fold change (FC) in IC50, mean: mean over 1515 patient samples without resistance-selected mutations; for Fold change (FC) in IC50, median: median over 1515 patient samples without resistance-selected mutations
Experimental: In a preferred embodiment, the phenotypic analysis is performed using PHENOSENSE™ (ViroLogic Inc., South San Francisco, Calif.). See Petropoulos et al., 2000, Antimicrob. Agents Chemother. 44:920-928; U.S. Pat. Nos. 5,837,464 and 6,242,187. PHENOSENSE™ is a phenotypic assay that achieves the benefits of phenotypic testing and overcomes the drawbacks of previous assays. Because the assay has been automated, PHENOSENSE™ offers higher throughput under controlled conditions. The result is an assay that accurately defines the susceptibility profile of a patient's HIV isolates to all currently available antiretroviral drugs, and delivers results directly to the physician within about 10 to about 15 days of sample receipt. PHENOSENSE™ is accurate and can obtain results with only one round of viral replication, thereby avoiding selection of subpopulations of virus. The results are quantitative, measuring varying degrees of drug susceptibility, and sensitive—the test can be performed on blood specimens with a viral load of about 500 copies/mL and can detect minority populations of some drug-resistant virus at concentrations of 10% or less of total viral population. Furthermore, the results are reproducible and can vary by less than about 1.4-2.5 fold, depending on the drug, in about 95% of the assays performed.
A resistance test vector (“RTV”) can then be constructed by incorporating the amplified viral gene sequences into a replication defective viral vector by using any method known in the art of incorporating gene sequences into a vector. In one embodiment, restrictions enzymes and conventional cloning methods are used. See Sambrook et al., 2001, Molecular Cloning: A Laboratory Manual, Cold Spring Harbor Laboratory, 3rd ed., NY; and Ausubel et al., 1989, Current Protocols in Molecular Biology, Greene Publishing Associates and Wiley Interscience, NY. In a preferred embodiment, ApaI and PinAI restriction enzymes are used. Preferably, the replication defective viral vector is the indicator gene viral vector (“IGVV”). In a preferred embodiment, the viral vector contains a means for detecting replication of the RTV. Preferably, the viral vector contains a luciferase expression cassette.
The assay can be performed by first co-transfecting host cells with RTV DNA and a plasmid that expresses the envelope proteins of another retrovirus, for example, amphotropic murine leukemia virus (MLV). Following transfection, virus particles can be harvested and used to infect fresh target cells. The completion of a single round of viral replication can be detected by the means for detecting replication contained in the vector. In a preferred embodiment, the completion of a single round of viral replication results in the production of luciferase. Serial concentrations of anti-viral agents can be added at either the transfection step or the infection step.
Susceptibility to the anti-viral agent can be measured by comparing the replication of the vector in the presence and absence of the anti-viral agent. For example, susceptibility to the anti-viral agent can be measured by comparing the luciferase activity in the presence and absence of the anti-viral agent. Susceptible viruses would produce low levels of luciferase activity in the presence of anti-viral agents, whereas viruses with reduced susceptibility would produce higher levels of luciferase activity.
In order to determine the relationship between an HIV-1 strain's protease sequence and its susceptibility to treatment with a protease inhibitor, a data set of patient plasma samples was analyzed genotypically as well as phenotypically. The phenotypic assay was conducted using the PHENOSENSE™ (Virologic, South San Francisco, Calif.) HIV assay (Petropoulos et al., 2000, Antimicrob. Agents Chemother. 44:920-928; U.S. Pat. Nos. 5,837,464 and 6,242,187). Plasma samples were collected from HIV-1-infected patients. […]

| SMILES | Fold change (FC) in IC50, 10th percentile | Fold change (FC) in IC50, 90th percentile | Fold change (FC) in IC50, mean | Fold change (FC) in IC50, median |
| --- | --- | --- | --- | --- |
| CC(C)CN(C[C@@H](O)[C@H](Cc1ccccc1)NC(=O)O[C@H]1CCOC1)S(=O)(=O)c1ccc(N)cc1 [APV, amprenavir] | 0.35 | 1.32 | 0.69 | 0.71 |
| CC(C)(C)NC(=O)[C@@H]1CN(Cc2cccnc2)CCN1C[C@@H](O)C[C@@H](Cc1ccccc1)C(=O)N[C@H]1c2ccccc2C[C@H]1O [IDV, indinavir] | 0.44 | 1.35 | 0.78 | 0.78 |
| Cc1cccc(C)c1OCC(=O)N[C@@H](Cc1ccccc1)[C@@H](O)C[C@H](Cc1ccccc1)NC(=O)[C@H](C(C)C)N1CCCNC1=O [LPV, lopinavir] | 0.40 | 1.15 | 0.68 | 0.69 |
| Cc1c(O)cccc1C(=O)N[C@@H](CSc1ccccc1)[C@H](O)CN1C[C@H]2CCCC[C@H]2C[C@H]1C(=O)NC(C)(C)C [NFV, nelfinavir] | 0.54 | 2.09 | 1.05 | 1.05 |
| CC(C)c1nc(CN(C)C(=O)N[C@H](C(=O)N[C@@H](Cc2ccccc2)C[C@H](O)[C@H](Cc2ccccc2)NC(=O)OCc2cncs2)C(C)C)cs1 [RTV, ritonavir] | 0.45 | 1.55 | 0.82 | 0.81 |
| CC(C)(C)NC(=O)[C@@H]1C[C@@H]2CCCC[C@@H]2CN1C[C@@H](O)[C@H](Cc1ccccc1)NC(=O)[C@H](CC(N)=O)NC(=O)c1ccc2ccccc2n1 [SQV, saquinavir] | 0.44 | 1.12 | 0.70 | 0.71 |

— US7553618B2, “Method for determining human immunodeficiciency virus type 1 (HIV-1) hypersusceptibility to the protease inhibitor amprenavir” (Monogram Biosciences, Inc., priority 2002, dated 2009)
